Reference: patent US9359373B1, “Lipophilic N-substituted norcantharimide derivatives and uses thereof” (priority 2014, dated 2016)

Columns and labels:
[1] = tested on: L1210 cells; test: Syngeneic L1210 tumor in vivo therapy; parameters: species or system DBA/2 mice
Method: The DBA/2 mice (about 7 weeks old, 18-22 g) were obtained from BioLASCO Taiwan Co., Ltd. All mice were housed in specific pathogen-free condition with ad libitum access to water and laboratory chow. A solution of L1210 cells was injected into the subcutaneous tissue to establish a syngeneic tumor. Alternatively, the L1210 cells was injected peritoneally. All animal experiments were performed in accordance with the guidelines of the Animal Welfare Committee of Taipei Veterans General Hospital (Taiwan, R.O.C.).
(§1) To inoculate tumor, L1210 cells (1×10^6 cells per injection) were injected either subcutaneously or intraperitoneally to lab animals to generate tumors on day 1. After 7 days, NOC15 or NC15 (diluted in normal saline) was administered intra-peritoneally at a dose of 18 mg/kg every day for 7 days. The average body weight (BW) of the animals was measured daily.
After treatment, mice were sacrificed, and their tumors, livers and spleens were harvested and weighted, respectively; and white blood cells (WBC) counts were also measured.
(§2) Mice were inoculated with L1210 tumor cells in accordance with the procedures described in the section of “Materials and Methods.” For in vivo therapy, animals were given 18 mg/Kg NOC15 or NC15 by intra-peritoneal route, for a period of at least 7 days. Tumor size, animal body weight, respective weights of liver and spleen, as well as the white blood cell count of each animal were then measured respectively at the indicated time. Results are depicted in FIGS. 8 to 11, respectively.

[2] = tested on: HL60; test: MTT cell viability, HL60; type: cell-based, human
Method: Cell lines used in the present disclosure include human liver carcinonoma cell line HepG2, human bladder carcinoma cell line BFTC905, human colon carcinoma cell lines HT29 and SW480, and human leukemia cell lines HL60 and Jurkat T, and mouse lymphocytic leukemia cell line L1210. Each cell lines were cultured and maintained in Dulbecco's modified Eagle media (DMEM) or RPMI 1640 medium supplemented with 10% heat inactivated fetal bovine serum (FBS), 1% penicillin/streptomycin, in 5% CO2195% air at 37° C.
The absorbance of the solution at 540 nm was measured by spectrophotometer. The IC50 values were defined as the drug concentration that inhibit 50% cell growth by setting the viability of untreated cells as 100%. Values were represented as the mean±SD from at least 3 independent experiments.
Effects of the compounds of formula (I) of this disclosure, specifically, NOC15 and NC 15, on HepG2 cells (liver carcinoma), BFTC905 (bladder carcinoma), HT29 (colon carcinoma), SW480 (colon carcinoma) and HL60 (leukemia) were assessed by cell viability analysis in accordance with procedures described above, in which compound 2, and other known anti-cancer agents including 5-FU, cisplatin and doxorubicin were respectively used as positive controls.

[3] = Body weight of treated animals; type: in vivo, mice; details: 18 mg/Kg, compared with healthy normal control, FIG. 11
Method: as §1, §2

CC(C)=CCCC(C)=CCCC(C)=CCN1C(=O)C2C3CCC(O3)C2C1=O (centres unmarked) [Compound 18, N-farnesyl-7-oxabicyclo[2.2.1]heptane-2,3-dicarboximide]
weight of liver ([1]; IP-inoculated tumor, 18 mg/kg i.p., FIG. 9B): improved significantly | weight of spleen ([1]; IP-inoculated tumor, 18 mg/kg i.p., FIG. 9C): improved significantly | increase in life span ([1]; SC-inoculated tumors, 18 mg/kg i.p. daily, FIG. 8A): about 40% | weight of s.c. tumor ([1]; SC-inoculated, 18 mg/kg i.p., FIG. 9A): Significant reduction | white blood cell (WBC) counts ([1]; day 14, SC- or IP-injected L1210, 18 mg/kg i.p., FIG. 10): significant reductions | IC50 ([2]; Homo sapiens, HL-60, MTT, 48 hours, Mean ± SD, read-out: Growth Inhibition IC50 HL-60): 79.8 ± 1.1 µM | response of leukemia cell line HL60 to treatment ([2]; in words, from Table 1): did respond | total body weight along the course of treatment [3]: eventually brought the animal body weight to the level same as the control
